Assay results: patent US20200131180A1, “POSITIVE ALLOSTERIC MODULATORS OF THE MUSCARINIC ACETYLCHOLINE RECEPTOR M1” (Vanderbilt University, priority 2018, published 2020)

Molecular target: T1, human mAChR M1 (Homo sapiens, UniProt P11229)
T1 sequence (P11229 1-460): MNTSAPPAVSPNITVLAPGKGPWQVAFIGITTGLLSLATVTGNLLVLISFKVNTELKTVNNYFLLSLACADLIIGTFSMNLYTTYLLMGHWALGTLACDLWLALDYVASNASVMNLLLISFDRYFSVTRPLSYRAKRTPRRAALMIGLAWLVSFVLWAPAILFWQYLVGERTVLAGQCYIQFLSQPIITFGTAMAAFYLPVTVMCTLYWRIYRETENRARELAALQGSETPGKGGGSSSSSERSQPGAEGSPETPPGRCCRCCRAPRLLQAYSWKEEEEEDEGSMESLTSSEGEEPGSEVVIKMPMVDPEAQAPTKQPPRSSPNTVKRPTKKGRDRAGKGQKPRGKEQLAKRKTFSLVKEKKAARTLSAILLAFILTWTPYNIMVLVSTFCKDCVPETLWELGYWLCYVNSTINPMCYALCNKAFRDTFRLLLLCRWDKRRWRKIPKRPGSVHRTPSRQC
Assay: mAChR M1 cell-based functional assay (calcium mobilization, PAM activity)
Settings: CHO-K1 cells expressing hM1, calcium flux (Fluo-4); for EC50: concentration-dependent increase in the EC20 acetylcholine response; for Emax: potentiation of EC20 acetylcholine response
From the text: Chinese hamster ovary (CHO-K1) cells stably expressing rat (r)M1 were purchased from the American Type Culture Collection and cultured according to their indicated protocol. CHO cells stably expressing human (h)M2, hM3, and hM5 were described previously (Levey, et al., 1991); hM1 and hM4 cDNAs were purchased from Missouri S&T cDNA Resource; rM4 cDNA was provided by T. I. Bonner (National Institutes of Health, Bethesda, Md.). rM2 and rM3 were cloned from a rat brain cDNA library and sequence verified. hM1, rM2, rM3, hM4, and rM4 cDNAs were used to stably transfect CHO-K1 cells purchased from the American Type Culture Collection using Lipofectamine 2000. To make stable rM2, hM2, rM3, hM4, and rM4 cell lines for use in calcium mobilization assays, these cells also were stably transfected with a chimeric G-protein (Gqi5) (provided by B. R. Conklin, University of California, San Francisco) using Lipofectamine 2000. rM1, hM1, rM3, hM3, rM5, and hM5 cells were grown in Ham's F-12 medium containing 10% heat-inactivated fetal bovine serum (FBS), 20 mM HEPES, and 50 μg/mL G418 sulfate. rM2-Gqi5, hM2-Gqi5, and hM4-Gqi5 cells were grown in the same medium also containing 500 μg/mL Hygromycin B. Stable rM4-Gqi5 cells were grown in DMEM containing 10% heat-inactivated FBS, 20 mM HEPES, 400 μg/mL G418 sulfate, and 500 μg/mL Hygromycin B.
For high throughput measurement of agonist-evoked increases in intracellular calcium, CHO-K1 cells stably expressing muscarinic receptors were plated in growth medium lacking G418 and hygromycin at 15,000 cells/20 μL/well in Greiner 384-well black-walled, tissue culture (TC)-treated, clear-bottom plates (VWR). Cells were incubated overnight at 37° C. and 5% CO2. The next day, cells were washed using an ELX 405 (BioTek) with four washes (80 μL) of assay buffer then aspirated to 20 μL. Next, 20 μL of 16 μM Fluo-4/acetoxymethyl ester (Invitrogen, Carlsbad, Calif.) prepared as a 2.3 mM stock in DMSO and mixed in a 1:1 ratio with 10% (w/v) Pluronic F-127 and diluted in assay buffer was added to the wells and the cell plates were incubated for 50 min at 37° C. and 5% CO2. Dye was removed by washing with the ELX 405 (four 80 μL washes of assay buffer) then aspirated to 20 μL. Compound master plates were formatted in an 11 point CRC format (1:3 dilutions) in 100% DMSO with a starting concentration of 10 mM using the BRAVO liquid handler (Agilent). Test compound CRCs were then transferred to daughter plates (240 nL) using the Echo acoustic plate reformatter (Labcyte, Sunnyvale, Calif.) and then diluted into assay buffer (40 μL) to a 2× stock using a Thermo Fisher Combi (Thermo Fisher Scientific, Waltham, Mass.).
Calcium flux was measured using the Functional Drug Screening System (FDSS) 6000 (Hamamatsu Corporation, Tokyo, Japan) as an increase in the fluorescent static ratio. Compounds were applied to cells (20 μL, 2×) using the automated system of the FDSS 6000 at 4 s into the 300 s protocol and the data were collected at 1 Hz. At 144 s into the 300s protocol, 10 μL of an EC20 concentration of the muscarinic receptor agonist acetylcholine was added (5×), followed by the addition of 12 μL an EC80 concentration of acetylcholine at the 230 s time point (5×). Agonist activity was analyzed as a concentration-dependent increase in calcium mobilization upon compound addition. Emax values for agonist activity are expressed relative to the maximum for acetylcholine. Positive allosteric modulator activity was analyzed as a concentration-dependent increase in the EC20 acetylcholine response. Antagonist activity was analyzed as a concentration-dependent decrease in the EC80 acetylcholine response. Concentration-response curves were generated using a four-parameter logistical equation in XLfit curve fitting software (IDBS, Bridgewater, N.J.) for Excel (Microsoft, Redmond, Wash.) or Prism (GraphPad Software, Inc., San Diego, Calif.). […]

Compound | EC50 | Emax
Cc1cn2cc(Cc3ccc(-c4ccn(C)n4)cc3)cc(C(=O)N[C@H]3CCOC[C@@H]3O)c2n1 [compound 21, N-[(3R,4S)-3-hydroxytetrahydropyran-4-yl]-2-methyl-6-[[4-(1-methylpyrazol-3-yl)phenyl]methyl]imidazo[1,2-a]pyridine-8-carboxamide] | 2240 nM | 43%
O=C(N[C@H]1CCCC[C@@H]1O)c1cc(Cc2ccc(-n3cccn3)cc2)cn2ccnc12 [compound 22, N-[(1S,2S)-2-hydroxycyclohexyl]-6-[(4-pyrazol-1-ylphenyl)methyl]imidazo[1,2-a]pyridine-8-carboxamide] | 610 nM | 84%
O=C(N[C@H]1CCOC[C@@H]1O)c1cc(Cc2ccc(-n3cccn3)cc2)cn2ccnc12 [compound 23, N-[(3R,4S)-3-hydroxytetrahydropyran-4-yl]-6-[(4-pyrazol-1-ylphenyl)methyl]imidazo[1,2-a]pyridine-8-carboxamide] | 341 nM | 82%
O=C(N[C@H]1CCC[C@@H]1O)c1cc(Cc2ccc(-n3cccn3)cc2)cn2ccnc12 [compound 24, N-[(1S,2S)-2-hydroxycyclopentyl]-6-[(4-pyrazol-1-ylphenyl)methyl]imidazo[1,2-a]pyridine-8-carboxamide] | 2140 nM | 76%
Cn1ccc(-c2ccc(Cc3cc(C(=O)N[C@H]4CCCC[C@@H]4O)c4nccn4c3)cn2)n1 [compound 25, N-[(1S,2S)-2-hydroxycyclohexyl]-6-[[6-(1-methylpyrazol-3-yl)-3-pyridyl]methyl]imidazo[1,2-a]pyridine-8-carboxamide] | 904 nM | 83%
Cn1ccc(-c2ccc(Cc3cc(C(=O)N[C@H]4CCOC[C@@H]4O)c4nccn4c3)cn2)n1 [compound 26, N-[(3R,4S)-3-hydroxytetrahydropyran-4-yl]-6-[[6-(1-methylpyrazol-3-yl)-3-pyridyl]methyl]imidazo[1,2-a]pyridine-8-carboxamide] | 4350 nM | 79%
Cn1ccc(-c2ccc(Cc3cc(C(=O)N[C@H]4CCOC[C@@H]4O)c4ncnn4c3)cn2)n1 [compound 27, N-[(3R,4S)-3-hydroxytetrahydropyran-4-yl]-6-[[6-(1-methylpyrazol-3-yl)-3-pyridyl]methyl]-[1,2,4]triazolo[1,5-a]pyridine-8-carboxamide] | 7980 nM | 78%
Cn1cc(-c2ccc(Cc3cc(C(=O)N[C@H]4CCOC[C@@H]4O)c4ncnn4c3)cc2)cn1 [compound 28, N-[(3R,4S)-3-hydroxytetrahydropyran-4-yl]-6-[[4-(1-methylpyrazol-4-yl)phenyl]methyl]-[1,2,4]triazolo[1,5-a]pyridine-8-carboxamide] | 1120 nM | 85%
Cc1nc(-c2ccc(Cc3cc(C(=O)N[C@H]4CCOC[C@@H]4O)c4ncnn4c3)cc2)co1 [compound 29, N-[(3R,4S)-3-hydroxytetrahydropyran-4-yl]-6-[[4-(2-methyloxazol-4-yl)phenyl]methyl]-[1,2,4]triazolo[1,5-a]pyridine-8-carboxamide] | 2550 nM | 82%
O=C(N[C@H]1CCOC[C@@H]1O)c1cc(Cc2ccc(-n3cccn3)cc2)cn2ncnc12 [compound 30, N-[(3R,4S)-3-hydroxytetrahydropyran-4-yl]-6-[(4-pyrazol-1-ylphenyl)methyl]-[1,2,4]triazolo[1,5-a]pyridine-8-carboxamide] | 1270 nM | 85%
Cn1cc(-c2ccc(Cc3cc(C(=O)N[C@H]4CCCC[C@@H]4O)c4ncnn4c3)cc2)cn1 [compound 31, N-[(1S,2S)-2-hydroxycyclohexyl]-6-[[4-(1-methylpyrazol-4-yl)phenyl]methyl]-[1,2,4]triazolo[1,5-a]pyridine-8-carboxamide] | 739 nM | 89%
Cc1nc(-c2ccc(Cc3cc(C(=O)N[C@H]4CCCC[C@@H]4O)c4ncnn4c3)cc2)co1 [compound 32, N-[(1S,2S)-2-hydroxycyclohexyl]-6-[[4-(2-methyloxazol-4-yl)phenyl]methyl]-[1,2,4]triazolo[1,5-a]pyridine-8-carboxamide] | 1430 nM | 87%
O=C(N[C@H]1CCCC[C@@H]1O)c1cc(Cc2ccc(-n3cccn3)cc2)cn2ncnc12 [compound 33, N-[(1S,2S)-2-hydroxycyclohexyl]-6-[(4-pyrazol-1-ylphenyl)methyl]-[1,2,4]triazolo[1,5-a]pyridine-8-carboxamide] | 604 nM | 87%
Cn1cc(-c2ccc(Cc3cc(C(=O)NC4CCOCC4)c4ncnn4c3)cc2)cn1 [compound 34, 6-[[4-(1-methylpyrazol-4-yl)phenyl]methyl]-N-tetrahydropyran-4-yl-[1,2,4]triazolo[1,5-a]pyridine-8-carboxamide] | 3690 nM | 35%
Cc1nc(-c2ccc(Cc3cc(C(=O)NC4CCOCC4)c4ncnn4c3)cc2)co1 [compound 35, 6-[[4-(2-methyloxazol-4-yl)phenyl]methyl]-N-tetrahydropyran-4-yl-[1,2,4]triazolo[1,5-a]pyridine-8-carboxamide] | 9360 nM | 31%
O=C(NC1CCOCC1)c1cc(Cc2ccc(-n3cccn3)cc2)cn2ncnc12 [compound 36, 6-[(4-pyrazol-1-ylphenyl)methyl]-N-tetrahydropyran-4-yl-[1,2,4]triazolo[1,5-a]pyridine-8-carboxamide] |  | 47%
Cn1ccc(-c2ccc(Cc3cc(C(=O)N[C@H]4CCCC[C@@H]4O)c4ncnn4c3)cn2)n1 [compound 37, N-[(1S,2S)-2-hydroxycyclohexyl]-6-[[6-(1-methylpyrazol-3-yl)-3-pyridyl]methyl]-[1,2,4]triazolo[1,5-a]pyridine-8-carboxamide] | 3540 nM | 83%
Cn1ccc(-c2cc(F)c(Cc3cc(C(=O)N[C@H]4CCOC[C@@H]4O)c4nccn4c3)c(F)c2)n1 [compound 38, 6-[[2,6-difluoro-4-(1-methylpyrazol-3-yl)phenyl]methyl]-N-[(3R,4S)-3-hydroxytetrahydropyran-4-yl]imidazo[1,2-a]pyridine-8-carboxamide] | 507 nM | 69%
Cn1ccc(-c2cc(F)c(Cc3cc(C(=O)N[C@H]4CCCC[C@@H]4O)c4nccn4c3)c(F)c2)n1 [compound 39, 6-[[2,6-difluoro-4-(1-methylpyrazol-3-yl)phenyl]methyl]-N-[(1S,2S)-2-hydroxycyclohexyl]imidazo[1,2-a]pyridine-8-carboxamide] | 558 nM | 58%
